Experimental data: article PMC9323911, “Comparative Metabolomics Study of the Impact of Articaine and Lidocaine on the Metabolism of SH-SY5Y Neuronal Cells” (Metabolites, 2022)
Where a name gives a salt, the structure may show the parent alone.

Tested on: SH-SY5Y cells
Assay: 1H NMR metabolic profiling of cell aqueous extracts
Assay type: cell-based, human
Experimental: Afterward, the medium was collected and the dishes washed with cold PBS, immediately before the solvent extraction procedure described below. Unexposed cells were used as controls. Each assay comprised duplicates of each condition and three independent assays were performed, giving a total of 6 replicates per condition.
The culture medium was collected from each plate (including cell-free medium incubated under the same conditions) in conical tubes and centrifuged at 1000× g for 10 min. Furthermore, 300 µL of the supernatant were collected for protein precipitation, as described by Kostidis et al.. Briefly, 600 µL of 100% methanol (v/v) at −80 °C were added to the collected supernatant ([…]). […] The supernatant was transferred to another tube and vacuum dried (SpeedVac, Eppendorf, Hamburg, Germany). For extracting cellular metabolites, a biphasic extraction protocol (methanol:chloroform:water; 1:1:0.7) was used as previously described. The resulting polar extracts were dried under vacuum in a Speedvac concentrator, and the lipophilic extracts were dried under a nitrogen flow. All extracts were stored at −80 °C prior to NMR analysis.
For NMR analysis, dried aqueous and lipid extracts were dissolved, respectively, in 600 μL of deuterated phosphate buffer (PBS 100 mM, pH 7.4) containing 0.1 mM 3-(trimethylsilyl) propionic acid (TSP-d4), and 600 μL of deuterated chloroform containing 0.03% tetramethylsilane (TMS). […] Two-dimensional NMR spectra, namely, ^1H-^1H TOCSY, J-resolved and ^1H-^13C HSQC spectra, were also recorded for selected samples to aid metabolite identification. Signal assignment was based on matching 1D and 2D spectral information to reference spectra available in Chenomx 9.0 (Edmonton, AB, Canada), BBIOREFCODE-2–0–0 (Bruker Biospin, Rheinstetten, Germany) and HMDB.
Principal Component Analysis (PCA) and Partial Least Squares-Discriminant Analysis (PLS-DA) were applied and the results were visualized through factorial co-ordinates (‘scores’) and factorial contributions (‘loadings’) colored according to variable importance to the projection (VIP). For PLS-DA models, Q^2 and R^2 values, respectively reflecting predictive capability and explained variance, obtained from sevenfold internal cross validation, were used to assess the robustness of group discrimination.
To provide a quantitative measurement of metabolic variations, spectral integration and total area normalization of selected signals (vide Supplementary Table S1) were carried out in Amix-Viewer 3.9.15 (Bruker Biospin, Rheinstetten, Germany). For each metabolite, the percentage of variation (or fold change) in exposed samples was calculated relative to respective controls, along with the effect size (ES) and statistical significance (p-value). The variations with larger magnitude (|ES| > 0.8) were expressed in a heatmap.

## CCN(CC)CC(=O)Nc1c(C)cccc1C [LDC, lidocaine hydrochloride]
IC10, 24 h, aqueous extract
  2-Ketovaline, variation in relation to control: 0.0%
  2-Oxoisoleucine, variation in relation to control: 0.0%
  ATP + ADP, variation in relation to control: -10.4%
  Alanine, variation in relation to control: 0.0%
  Asparagine, variation in relation to control: -18.9%
  Aspartate, variation in relation to control: -12.9%
  Creatine, variation in relation to control: 24.9%
  Cystathionine, variation in relation to control: 12.1%
  Formate, variation in relation to control: 17.0%
  Glutamate, variation in relation to control: -16.3%
  Glutamine, variation in relation to control: -22.0%
  Glycerophosphocholine, variation in relation to control: -11.7%
  Glycine, variation in relation to control: 16.6%
  Histidine, variation in relation to control: 11.8%
  Isobutyrate, variation in relation to control: -14.4%
  Isoleucine, variation in relation to control: 18.2%
  Lactate, variation in relation to control: 0.0%
  Leucine, variation in relation to control: 33.4%
  NAD+, variation in relation to control: 0.0%
  Panthothenic, variation in relation to control: 11.9%
  Phenylalanine, variation in relation to control: 22.7%
  Phosphocholine, variation in relation to control: 14.1%
  Phosphocreatine, variation in relation to control: -16.1%
  Proline, variation in relation to control: -15.8%
  UDP-GlcNAc, variation in relation to control: -10.8%
  Valine, variation in relation to control: 15.5%
  beta-Alanine, variation in relation to control: -10.0%
  myo-Inositol, variation in relation to control: -16.9%
IC50, 24 h, aqueous extract
  2-Ketovaline, variation in relation to control: 16.5%
  2-Oxoisoleucine, variation in relation to control: 21.6%
  ATP + ADP, variation in relation to control: -23.0%
  Alanine, variation in relation to control: 17.1%
  Asparagine, variation in relation to control: 27.8%
  Aspartate, variation in relation to control: 12.1%
  Creatine, variation in relation to control: 17.6%
  Cystathionine, variation in relation to control: -28.3%
  Formate, variation in relation to control: 58.8%
  Glutamate, variation in relation to control: 0.0%
  Glutamine, variation in relation to control: 43.0%
  Glycerophosphocholine, variation in relation to control: -33.4%
  Glycine, variation in relation to control: 48.8%
  Histidine, variation in relation to control: 22.5%
  Isoleucine, variation in relation to control: 33.4%
  Lactate, variation in relation to control: -12.4%
  Leucine, variation in relation to control: 54.2%
  NAD+, variation in relation to control: 16.7%
  Panthothenic, variation in relation to control: 14.7%
  Phenylalanine, variation in relation to control: 36.2%
  Phosphocholine, variation in relation to control: 23.7%
  Phosphocreatine, variation in relation to control: -42.3%
  Proline, variation in relation to control: -38.0%
  UDP-GlcNAc, variation in relation to control: -38.7%
  Valine, variation in relation to control: 33.9%
  beta-Alanine, variation in relation to control: -72.1%
  myo-Inositol, variation in relation to control: -50.6%
IC50, 24 h, vs control
  intracellular glutamate level (in words): not altered
  intracellular phosphocholine level (in words): increased
